This experiment has as its target T1, IGF-1R (Homo sapiens, UniProt P08069).
T1 construct: expressed in transfected cells; host or cells: Hek293 (Hek293-IGF1R)
The experiment in a line: Cellular IGF-1R assay: capture ELISA (MSD) of receptor phosphorylation in Hek293 cells. It counts as cell-based. The following applies: Hek293-IGF1R cells, 1 h pre-incubation, 10 min IGF stimulation, pIGF1R capture ELISA. On the procedure: (§1) In this assay the activity of the compounds of the invention against Insulin-like growth factor I (IGF-I) induced autophosphorylation of the IGF-IR was determined. The assay was conducted as follows: Compound-mediated inhibition of IGF1R and INSR phosphorylation in Hek293 cells transduced with the corresponding receptors was assessed in a capture ELISA format using the MSD (Meso Scale Discovery) platform. Briefly, 30,000 cells washed and diluted in starvation medium (DMEM high glucose supplemented with 0.1% BSA) were seeded in 90 μL per well into 96-well plates pre-coated with poly-D-lysine (0.1 mg/mL in PBS/O). After 24 h incubation at 37° C. and 5% CO2, dose-response effects were determined with 3-fold serial compound dilutions, starting at 10 μM. The final vehicle concentration is 0.1% DMSO in all wells. Following pre-incubation with compounds for 1 h, receptor phosphorylation was triggered by a 10 min exposure to 1.0 ng/μL IGF for Hek293-IGF1R cells, and 5.0 ng/μL insulin for Hek293-InsR cells. Cell lysis was achieved by addition of 80 μL MSD lysis buffer per aspirated well, incubation on ice for 20 min, and a freeze-thaw cycle. Target phosphorylation was then assessed by transferring volumes corresponding to approx. 6 μg Hek293-IGF1R or 0.6 μg Hek293-InsR lysates to MSD assay plates pre-coated with total-IGF1R or total-InsR Abs, respectively. […] Immune complexes were detected by a SULFO-Tag™-coupled anti-rabbit IgG antibody in the presence of 150 μL MSD read-buffer. Light emission at 620 nm triggered by application of electric current was recorded on a MSD Sectorlmager 6000. Acquired raw data (mean Ru-ECL units) were processed in an Excel analysis template. The plate blank (MSD lysis buffer) was subtracted from all data points. The effect of a particular test compound concentration on receptor phosphorylation was expressed relative to the window defined by ligand-stimulated vs unstimulated control cells (set as 100%). IC50 values [nM] were determined using 4-parametric curve-fitting (XLfit software, V4.3.2).
as §1, with “Compound-mediated” for “In this assay the activity of the compounds of the invention against Insulin-like growth factor I (IGF-I) induced autophosphorylation of the IGF-IR was determined. The assay was conducted as follows: Compound-mediated”, “cells trans-duced” for “cells transduced”, “receptors were” for “receptors was”, “concentration was” for “concentration is”, “for Hek293-IGF1 R” for “for Hek293-IGF1R”, “with total-IGF1 R” for “with total-IGF1R”

T1 sequence (P08069 31-1367): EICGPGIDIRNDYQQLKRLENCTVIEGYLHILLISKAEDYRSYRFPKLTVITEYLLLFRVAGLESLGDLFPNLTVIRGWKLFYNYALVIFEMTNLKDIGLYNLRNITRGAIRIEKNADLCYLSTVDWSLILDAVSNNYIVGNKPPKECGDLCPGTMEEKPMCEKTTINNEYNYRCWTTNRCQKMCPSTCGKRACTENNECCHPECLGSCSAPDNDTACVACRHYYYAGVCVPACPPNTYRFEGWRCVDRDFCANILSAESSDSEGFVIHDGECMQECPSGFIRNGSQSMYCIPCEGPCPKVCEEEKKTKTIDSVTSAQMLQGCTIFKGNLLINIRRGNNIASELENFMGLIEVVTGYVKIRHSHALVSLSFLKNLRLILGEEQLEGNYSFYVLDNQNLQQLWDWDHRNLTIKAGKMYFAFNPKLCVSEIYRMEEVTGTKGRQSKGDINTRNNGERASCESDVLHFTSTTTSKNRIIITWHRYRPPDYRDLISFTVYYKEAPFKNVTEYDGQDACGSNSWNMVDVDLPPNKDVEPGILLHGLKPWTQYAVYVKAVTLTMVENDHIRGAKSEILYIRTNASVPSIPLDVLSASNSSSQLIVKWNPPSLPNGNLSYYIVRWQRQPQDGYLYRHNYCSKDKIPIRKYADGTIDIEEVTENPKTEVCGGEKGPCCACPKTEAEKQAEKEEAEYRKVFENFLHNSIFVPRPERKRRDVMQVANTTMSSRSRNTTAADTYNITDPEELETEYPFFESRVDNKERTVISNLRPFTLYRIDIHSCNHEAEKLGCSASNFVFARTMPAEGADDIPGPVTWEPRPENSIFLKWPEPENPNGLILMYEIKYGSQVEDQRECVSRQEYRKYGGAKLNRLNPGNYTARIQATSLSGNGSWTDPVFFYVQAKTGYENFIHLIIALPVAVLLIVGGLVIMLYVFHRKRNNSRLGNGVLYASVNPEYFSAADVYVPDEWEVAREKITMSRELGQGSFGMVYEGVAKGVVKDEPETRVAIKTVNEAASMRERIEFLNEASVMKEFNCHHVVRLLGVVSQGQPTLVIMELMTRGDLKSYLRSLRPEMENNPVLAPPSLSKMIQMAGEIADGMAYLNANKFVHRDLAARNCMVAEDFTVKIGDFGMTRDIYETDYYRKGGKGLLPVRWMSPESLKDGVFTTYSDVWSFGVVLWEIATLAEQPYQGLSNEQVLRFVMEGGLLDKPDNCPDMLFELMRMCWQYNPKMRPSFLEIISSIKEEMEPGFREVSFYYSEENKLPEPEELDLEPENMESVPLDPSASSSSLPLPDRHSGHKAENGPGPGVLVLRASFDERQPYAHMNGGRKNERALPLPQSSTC

Compound `Nc1ncnc2c1c(-c1cccc(OCC34CCC(CC3)O4)c1)cn2[C@H]1C[C@@H](O)C1` (relative stereo) [Example 221, cis-3-{4-amino-5-[3-(7-oxa-bicyclo[2.2.1]hept-1-ylmethoxy)-phenyl]-pyrrolo[2,3-d]pyrimidin-7-yl}cyclobutanol] had an IC50 of 411 nM.

In the case of `COC(=O)NCC1CC(n2cc(-c3cccc(OCC45CCC(CC4)O5)c3)c3c(N)ncnc32)C1` (stereo not drawn) [Example 161, (3-{4-amino-5-[3-(7-oxa-bicyclo[2.2.1]hept-1-ylmethoxy)-phenyl]-pyrrolo[2,3-d]pyrimidin-7-yl}-cyclobutylmethyl)-carbamic acid methyl ester], the IC50 came out at 16 nM.

In the case of `Nc1ncnc2c1c(-c1cccc(OCC34CCC(CC3)O4)c1)cn2[C@H]1C[C@](O)(CN2CC(O)C2)C1` [Example 199, (Z)-1-(3-{4-Amino-5-[3-(7-oxa-bicyclo[2.2.1]hept-1-ylmethoxy)-phenyl]-pyrrolo[2,3-d]pyrimidin-7-yl}-1-hydroxy-cyclobutylmethyl)-azetidin-3-ol], the IC50 was 201 nM.

For the compound `Nc1ncnc2c1c(-c1cccc(OCC34CCC(CC3)O4)c1)cn2C1CCC(N2CC[C@H](F)C2)CC1` (stereo partly drawn) [Example 132, 5-(3-(7-oxabicyclo[2.2.1]heptan-1-ylmethoxy)phenyl)-7-((1R,4R)-4-((S)-3-fluoropyrrolidin-1-yl)cyclohexyl)-7H-pyrrolo[2,3-d]pyrimidin-4-amine], the midpoint of inhibition, the IC50, lay at 114 nM.

`Nc1ncnc2c1c(-c1cccc(OCC34CCC(CC3)O4)c1)cn2[C@H]1CC[C@@H](CN2CCNCC2)CC1` [Example 136, 5-(3-(7-oxabicyclo[2.2.1]heptan-1-ylmethoxy)phenyl)-7-((1S,4S)-4-(piperazin-1-ylmethyl)cyclohexyl)-7H-pyrrolo[2,3-d]pyrimidin-4-amine] displayed an IC50 of 597 nM.

As to `CC1(C)CCC(COc2cccc(-c3cn([C@H]4C[C@H](CN5CCC[C@H]5C(N)=O)C4)c4ncnc(N)c34)c2)O1` (stereo partly drawn) [Example 71, (S)-1-(trans-3-{4-amino-5-[3-(5,5-dimethyl-tetrahydro-furan-2-ylmethoxy)-phenyl]-pyrrolo[2,3-d]pyrimidin-7-yl}-cyclobutylmethyl)-pyrrolidine-2-carboxylic acid amide], the IC50 was less than 4 nM.

The compound `Nc1ncnc2c1c(-c1cccc(OCC34CCC(CC3)O4)c1)cn2[C@H]1C[C@@H](N2CCS(=O)(=O)CC2)C1` (relative stereo) [Example 230, 7-[cis-3-(1,1-dioxo-thiomorpholin-4-yl)-cyclobutyl]-5-[3-(7-oxa-bicyclo[2.2.1]hept-1-ylmethoxy)-phenyl]-7H-pyrrolo[2,3-d]pyrimidin-4-ylamine] returned an IC50 of 17 nM.

In the case of `Nc1ncnc2c1c(-c1cccc(OCC34CCC(CC3)O4)c1)cn2C1CC(CN2CC[C@@H](O)C2)C1` (stereo partly drawn) [Example 213, (R)-1-(3-{4-Amino-5-[3-(7-oxa-bicyclo[2.2.1]hept-1-ylmethoxy)-phenyl]-pyrrolo[2,3-d]pyrimidin-7-yl}-cyclobutylmethyl)-pyrrolidin-3-ol], the IC50 worked out at 15 nM.

Turning to `Nc1ncnc2c1c(-c1cccc(OC[C@@H]3CCCO3)c1)cn2[C@H]1C[C@@H](CN2CCC(F)(F)CC2)C1` [Example 16, cis-7-[3-(4,4-Difluoro-piperidin-1-ylmethyl)-cyclobutyl]-5-{3-[(S)-1-(tetrahydrofuran-2-yl)methoxy]-phenyl}-7H-pyrrolo[2,3-d]pyrimidin-4-ylamine], the IC50 was 90 to 219 nM.

`Nc1ncnc2c1c(-c1cccc(OCC34CCC(CC3)O4)c1)cn2C1CC(O)(CN2CCC(O)C2)C1` (single isomer, unassigned) [Example 203] yielded an IC50 of 501 nM.

The compound `Nc1ncnc2c1c(-c1cccc(OCC34CCC(CC3)O4)c1)cn2[C@H]1CC[C@@H](CN2CCSCC2)CC1` [Example 112, 5-(3-(7-oxabicyclo[2.2.1]heptan-1-ylmethoxy)phenyl)-7-((1S,4S)-4-(thiomorpholinomethyl)cyclohexyl)-7H-pyrrolo[2,3-d]pyrimidin-4-amine] registered an IC50 of 36 nM.

`NC(=O)[C@@H]1CCCN1C[C@H]1C[C@@H](n2cc(-c3cccc(OC[C@@H]4CCCCO4)c3)c3c(N)ncnc32)C1` [Example 44, (S)-1-[3-(4-amino-5-{3-[(S)-1-(tetrahydro-pyran-2-yl)methoxy]-phenyl}-pyrrolo[2,3-d]pyrimidin-7-yl)-cyclobutylmethyl]-pyrrolidine-2-carboxylic acid amide] came in with an IC50 of 7 to 15 nM.

The compound `CC1(C)CS(=O)(=O)CCN1CC1CCC(n2cc(-c3cccc(OCC45CCC(CC4)O5)c3)c3c(N)ncnc32)CC1` (stereo not drawn) [Example 135, 7-[4-(3,3-Dimethyl-1,1-dioxo-1λ6-thiomorpholin-4-ylmethyl)-cyclohexyl]-5-[3-(7-oxa-bicyclo[2.2.1]hept-1-ylmethoxy)-phenyl]-7H-pyrrolo[2,3-d]pyrimidin-4-ylamine] showed an IC50 of 456 nM.

`CC1(OC(=O)NC[C@H]2C[C@@H](n3cc(-c4cccc(OCC56CCC(CC5)O6)c4)c4c(N)ncnc43)C2)CC1` [Example 107] registered an IC50 of 21 nM.

In the case of `CC1(C)CCC(COc2cccc(-c3cn([C@H]4C[C@@H](CN5CC[C@@H](F)C5)C4)c4ncnc(N)c34)c2)O1` (relative stereo) [Example 52, 5-[cis-3-(5,5-dimethyl-tetrahydro-furan-2-ylmethoxy)-phenyl]-7-[3-((R)-3-fluoro-pyrrolidin-1-ylmethyl)cyclobutyl]-7H-pyrrolo[2,3-d]pyrimidin-4-ylamine], the IC50 was 37 nM.

`CC1(C)CCC(COc2cccc(-c3cn(C4CC(CN5CC(F)C5)C4)c4ncnc(N)c34)c2)O1` (stereo not drawn) [Example 40, 5-(cis-3-((5,5-dimethyltetrahydrofuran-2-yl)methoxy)phenyl)-7-(3-((3-fluoroazetidin-1-yl)methyl)cyclobutyl)-7H-pyrrolo[2,3-d]pyrimidin-4-amine]: the IC50 was in the range of 39 to 52 nM.

In the case of `Nc1nccn2c1c(-c1cccc(OCC3CCCCO3)c1)nc2[C@H]1C[C@@H](CN2CCS(=O)(=O)CC2)C1` (stereo partly drawn) [Example 30, 3-[cis-3-(1,1-Dioxothiomorpholin-4-ylmethyl)-cyclobutyl]-1-[3-(tetrahydro-pyran-2-ylmethoxy)-phenyl]-imidazo[1,5-a]pyrazin-8-ylamine], the IC50 came to 254 nM.

As to `Nc1nccn2c1c(-c1cccc(OCC34CCC(CC3)O4)c1)nc2[C@H]1C[C@@H](N2CCC(O)CC2)C1` [Example 187], the IC50 was 128 nM.

`NC(=O)[C@@H]1CCCN1C[C@H]1C[C@H](n2cc(-c3cccc(OCC4CCCO4)c3)c3c(N)ncnc32)C1` (stereo partly drawn) [Example 86, (S)-1-(trans-3-(4-amino-5-[3-(tetrahydro-furan-2-ylmethoxy)-phenyl]-pyrrolo[2,3-d]pyrimidin-7-yl}-cyclobutylmethyl)-pyrrolidine-2-carboxylic acid amide] registered an IC50 of 47 nM.

With `CN1CCN([C@H]2CC[C@@H](n3cc(-c4cccc(OC[C@H]5CCC(C)(C)O5)c4)c4c(N)ncnc43)CC2)CC1` [Example 121, 5-(3-(((R)-5,5-dimethyltetrahydrofuran-2-yl)methoxy)phenyl)-7-((1S,4S)-4-(4-methylpiperazin-1-yl)cyclohexyl)-7H-pyrrolo[2,3-d]pyrimidin-4-amine], the IC50 amounted to 149 nM.

In turn, `CC1(C)CCC(COc2cccc(-c3cn(C4CC(CN5CCC(F)C5)C4)c4ncnc(N)c34)c2)O1` (single isomer, unassigned) [Example 39] came in with an IC50 of 224 nM.

Source of the values: patent US20120165310A1, “ETHER DERIVATIVES OF BICYCLIC HETEROARYLS” (NOVARTIS AG, priority 2009, published 2012).
